Data as given in publication PMC8344233, “Anticancer activity and toxicity of new quaternary ammonium geldanamycin derivative salts and their mixtures with potentiators” (Journal of Enzyme Inhibition and Medicinal Chemistry, 2021).
In brackets after ≈: the same amount, converted by molar mass.

What was measured:
CCD39Lu = assay: MTT cytotoxicity assay, normal lung fibroblasts CCD39Lu; type: cell-based; conditions: Fibroblast, ± SD, healthy human lung fibroblasts, 72 h, read-out: IC50 CCD39Lu (toxicity in normal cells)
Experimental: (§1) Cell survival was measured as the percentage absorbance compared to the control (nontreated cells). […]
(§2) SI indexes were calculated from equation SI = IC50 normal cell line HDF/IC50 respective cancerous cell line (Table 2). A beneficial SI > 1.0 indicates a compound with efficacy against tumor cell greater than the toxicity against normal cells.
(§3) All experiments were carried out with human breast adenocarcinoma (MDA-MB-231 and MCF-7), hepatocellular carcinoma (HepG2), human cervical adenocarcinoma (HeLa) cancer cell lines, and human normal lung fibroblast (CCD39Lu) cell line. The cell line was purchased from the European Collection of Cells Cultures (ECACC, Salisbury, UK), and cultured in DMEM with phenol red supplemented with 10% (v/v) FBS, 1% (v/v) penicillin/streptomycin, and 1% (v/v) L-glutamine at 37 °C, in a humidified atmosphere containing 5% CO2.
(§4) The tested compounds were dissolved in DMSO to the final concentration 10 mM and stored […]
(§5) The cytotoxic effect of the tested compounds was determined by MTT assay. MDA-MB-231, MCF-7, HepG2, HeLa, and CCD39Lu cells were seeded in 96 wells plates at density 2x10^4 cells/well and incubated overnight under cell culture condition. Next, cells were treated with tested compounds at concentrations of 10 µM; 5 µM; 2.5 µM; 1.2 µM; 0.6 µM; 0.3 µM; 0.15 […]
(§6) µM. Moreover, GDM (for MCF-7) and 8 (for MCF-7 and MDA-MB-231) due to high cytotoxicity, were additionally tested at a lower concentration range of 2.5 µM; 1.2 µM; 0.6 µM; 0.3 µM; 0.15µM; 0.07 µM; 0.03 µM. DMSO was used as a control, and the concentration […]
(§7) Tested compounds were added to cells in the medium without phenol red. Cells were incubated 72 h at 37 °C in a humidified atmosphere containing 5% CO2.
(§8) Then, the medium was aspirated and MTT solution at a concentration of 0.59 mg/mL in cell culture medium was added to each well. Plates were incubated for 1.5 hours at 37 °C, and then plates were centrifuged for 3 minutes. The formazan crystals were dissolved in 200 µl DMSO and plates were agitated on a plate shaker at 300 –500 rpm for 10 minutes. Absorbance at 570 nm was measured using a plate reader (Biotek Instruments, Elx -800). Data were normalized to the mean absorption of control cells. All experiments were performed at least three times. […]

MCF-7 = assay: MTT cytotoxicity assay, MCF-7 (1st panel); type: cell-based, human; conditions: for IC50: ± SD, MTT, 72 h; for selectivity index SI (MCF-7): IC50 normal cell line CCD39Lu/IC50 MCF-7
Experimental: as §1, §2, §3, §4, §5, §6, §7, §8

PC-3 = assay: SRB cytotoxicity assay, PC-3 (2nd panel); type: cell-based, human; conditions: for IC50: Homo sapiens, PC-3, ± SD, SRB, 72 h, mixtures equimolar 1:1; for selectivity index SIHDF (PC-3): IC50 normal cell line HDF/IC50 PC-3
Experimental: (§9) Medium. Human Dermal Fibroblasts cell line (HDF) was cultured in Fibroblast Basal Medium.
(§10) Each medium was supplemented with 10% fetal bovine serum, 1% L-glutamine, and 1% penicillin/streptomycin solution. The cell lines were kept in the incubator at 37◦C. The optimal plating density of cell lines was determined to be 5 × 104. All the cell lines and mediums were obtained from American Type Culture Collection (ATCC) supplied by LGC-Standards. The protein-staining SRB (Sigma-Aldrich) microculture colorimetric assay, developed by the National Cancer Institute (USA) for in vitro antitumor screening was used in this study, to estimate the cell number by providing a sensitive index of total cellular protein content, being linear to cell density. The monolayer cell culture was trypsinized and the cell count was adjusted to 5 × 10^4 cells. To each well of the 96 well microtiter plate, 0.1 mL of the diluted cell suspension (approximately […]) was added. After 24 hours, when a partial monolayer was formed, the supernatant was washed out and 100 μL of six different compound concentrations (0.1, 0.2, 1, 2, 10, and 20 μM) were added to the cells in microtitre plates. The tested compounds were dissolved in DMSO (containing 10 % of water) (100 μL) and the […]
(§11) lines. The cells were exposed to compounds for 72 hours at 37 °C in a humidified atmosphere (90% RH) containing 5% CO2. After that, 25 μL of 50 % trichloroacetic acid was added to the wells and the plates were incubated for 1 hour at 4◦C. The plates were then washed out with the distilled water to remove traces of medium and next dried by the air. The air-dried plates were stained with 100 μL of 0.4% sulforhodamine B (prepared in 1 % acetic acid) and kept for 30 minutes at room temperature. The unbound dye was removed by rapidly washing with 1% […]
(§12) acetic acid and then air dried overnight. The protein-bound dye was dissolved in 100 μL of 10 mM unbuffered Tris base (pH 10.5) for optical density determination at 490 nm. All cytotoxicity experiments were performed three times. Cell survival was measured as the percentage absorbance compared to the control (nontreated cells). Cytarabine (ara-C) and GDM were used as the internal standards. Additionally biological assays were performed in Human Dermal Fibroblasts cell line (HDF) in aim to evaluate cytotoxicity of GDM and its 1-13 analogs in healthy cells. SI indexes were calculated from equation SI = IC50 normal cell line HDF/IC50 respective cancerous cell line (Table 2). A beneficial SI > 1.0 indicates a compound with efficacy against tumor cell greater than the toxicity against normal cells. […]

HDF = assay: SRB cytotoxicity assay, human dermal fibroblasts HDF; type: cell-based; conditions: 72 h, ± SD, mixtures equimolar 1:1, read-out: IC50 HDF (toxicity in normal cells)
Experimental: as §9, §10, §11, §12

MDA-MB-231 = assay: MTT cytotoxicity assay, MDA-MB-231 (1st panel); type: cell-based, human; conditions: for IC50: Homo sapiens, MDA-MB-231, ± SD, MTT, 72 h; for selectivity index SI (MDA-MB-231): IC50 normal cell line CCD39Lu/IC50 MDA-MB-231
Experimental: as §1, §2, §3, §4, §5, §6, §7, §8

SKOV-3 = assay: SRB cytotoxicity assay, SKOV-3 (2nd panel); type: cell-based, human; conditions: for IC50: Homo sapiens, SK-OV-3, ± SD, SRB, 72 h, mixtures equimolar 1:1; for selectivity index SIHDF (SKOV-3): IC50 normal cell line HDF/IC50 SKOV-3
Experimental: Human cancer cells SKBR-3 (human breast cancer cell line) and SKOV-3 (ovarian cancer cell line) were cultured in McCoy’s Modified Medium. […]
as §9, §10, §11, §12

U-87 = assay: SRB cytotoxicity assay, U-87 (2nd panel); type: cell-based, human; conditions: for IC50: Homo sapiens, U-87 MG, ± SD, SRB, 72 h; for selectivity index SIHDF (U-87): IC50 normal cell line HDF/IC50 U-87
Experimental: U-87MG cells (glioblastoma cell line) were cultured in Eagle’s Minimal Essential Medium. Human Dermal Fibroblasts cell line (HDF) was cultured in Fibroblast Basal Medium.
as §10, §11, §12

A-549 = assay: SRB cytotoxicity assay, A-549 (2nd panel); type: cell-based, human; conditions: for IC50: Homo sapiens, A549, ± SD, SRB, 72 h; for selectivity index SIHDF (A-549): IC50 normal cell line HDF/IC50 A-549
Experimental: as §9, §10, §11, §12

HepG2 = assay: MTT cytotoxicity assay, HepG2 (1st panel); type: cell-based, human; conditions: for IC50: Homo sapiens, HepG2, ± SD, MTT, 72 h; for selectivity index SI (HepG2): IC50 normal cell line CCD39Lu/IC50 HepG2
Experimental: as §1, §2, §3, §4, §5, §6, §7, §8

physchem = conditions: water, Solubility SH2O

| Structure (SMILES) | IC50 (CCD39Lu) | IC50 (MCF-7; Homo sapiens, MCF7, 72 h) | selectivity index SI (MCF-7) (MCF-7) | IC50 (MCF-7) | IC50 (PC-3) | selectivity index SIHDF (PC-3) (PC-3) | CC50 (HDF) | IC50 (MDA-MB-231) | selectivity index SI (MDA-MB-231) (MDA-MB-231) | IC50 (SKOV-3) | selectivity index SIHDF (SKOV-3) (SKOV-3) | IC50 (U-87) | selectivity index SIHDF (U-87) (U-87) | IC50 (A-549) | selectivity index SIHDF (A-549) (A-549) | IC50 (HepG2) | selectivity index SI (HepG2) (HepG2) | solubility (physchem) |
| --- | --- | --- | --- | --- | --- | --- | --- | --- | --- | --- | --- | --- | --- | --- | --- | --- | --- | --- |
| CO[C@H]1/C=C\C=C(/C)C(=O)NC2=CC(=O)C(NC3CCC3)=C(C[C@@H](C)C[C@H](OC)[C@H](O)[C@@H](C)/C=C(\C)[C@@H]1OC(N)=O)C2=O [Compound 1] | > 10000 nM | ~100 nM | > 76.92 | 130 ± 10 nM | 7020 ± 60 nM | 4.28 | 30000 nM | 2450 ± 780 nM | > 4.08 | 8040 ± 240 nM | 3.73 | 7320 ± 490 nM | 4.10 | 9010 ± 630 nM | 3.33 | 1750 ± 40 nM | > 5.71 |  |
| CO[C@H]1/C=C\C=C(/C)C(=O)NC2=CC(=O)C(NC3CN4CCC3CC4)=C(C[C@@H](C)C[C@H](OC)[C@H](O)[C@@H](C)/C=C(\C)[C@@H]1OC(N)=O)C2=O (some centres unmarked) [Compound 8] | 870 ± 220 nM | ~100 nM | 9.67 | 90 ± 10 nM | 1470 ± 310 nM | 2.19 | 3220 ± 180 nM | 140 ± 10 nM | 6.21 | 1160 ± 920 nM | 2.78 | 1080 ± 160 nM |  | 940 ± 30 nM |  | 1250 ± 220 nM | 0.70 | 150 µg/mL (≈ 229 µM) |
| C=CC[N+]12CCC(CC1)C(NC1=C3C[C@@H](C)C[C@H](OC)[C@H](O)[C@@H](C)/C=C(\C)[C@H](OC(N)=O)[C@@H](OC)/C=C\C=C(/C)C(=O)NC(=CC1=O)C3=O)C2 (some centres unmarked) [Compound 9] | > 10000 nM | 2340 ± 560 nM | > 4.27 |  | 3010 ± 110 nM | 1.76 | ~5290 nM | 4650 ± 2650 nM | > 2.15 | 3860 ± 50 nM | 1.37 | 3690 ± 80 nM | 1.43 | 3090 ± 10 nM | 1.71 | > 10000 nM | > 1 |  |
| C/C=C/C[N+]12CCC(CC1)C(NC1=C3C[C@@H](C)C[C@H](OC)[C@H](O)[C@@H](C)/C=C(\C)[C@H](OC(N)=O)[C@@H](OC)/C=C\C=C(/C)C(=O)NC(=CC1=O)C3=O)C2 (some centres unmarked) [Compound 10] | > 10000 nM | 2510 ± 1030 nM | > 3.98 |  | 1880 ± 20 nM | 1.57 | 2960 ± 360 nM | 4640 ± 1510 nM | > 2.16 | 1610 ± 130 nM | 1.84 | 1840 ± 110 nM | 1.61 | 1290 ± 70 nM | 2.29 | > 10000 nM | > 1 | > 5000 µg/mL |
| CO[C@H]1/C=C\C=C(/C)C(=O)NC2=CC(=O)C(NC3C[N+]4(C/C=C/c5ccccc5)CCC3CC4)=C(C[C@@H](C)C[C@H](OC)[C@H](O)[C@@H](C)/C=C(\C)[C@@H]1OC(N)=O)C2=O (some centres unmarked) [Compound 13] | > 10000 nM | 2310 ± 970 nM | > 4.33 |  | 2050 ± 90 nM | 1.86 | ~3810 nM | 4660 ± 2490 nM | > 2.15 | 2170 ± 60 nM | 1.76 | 2260 ± 150 nM | 1.67 | 2060 ± 10 nM | 1.85 | > 10000 nM | > 1 | > 5000 µg/mL |
